{
  "source": "patent US6969730B2",
  "about": "“Amines as histamine-3 receptor ligands and their therapeutic applications” (Abbott Laboratories, priority 2001, dated 2005)",
  "data": [
    {"target": "T1, histamine-3 receptors (H3 receptor) (Rattus norvegicus, UniProt Q9QYN8)", "T1 construct": "from tissue; host or cells: male Sprague-Dawley rat brain cortex membranes", "T1 sequence (Q9QYN8 whole entry)": "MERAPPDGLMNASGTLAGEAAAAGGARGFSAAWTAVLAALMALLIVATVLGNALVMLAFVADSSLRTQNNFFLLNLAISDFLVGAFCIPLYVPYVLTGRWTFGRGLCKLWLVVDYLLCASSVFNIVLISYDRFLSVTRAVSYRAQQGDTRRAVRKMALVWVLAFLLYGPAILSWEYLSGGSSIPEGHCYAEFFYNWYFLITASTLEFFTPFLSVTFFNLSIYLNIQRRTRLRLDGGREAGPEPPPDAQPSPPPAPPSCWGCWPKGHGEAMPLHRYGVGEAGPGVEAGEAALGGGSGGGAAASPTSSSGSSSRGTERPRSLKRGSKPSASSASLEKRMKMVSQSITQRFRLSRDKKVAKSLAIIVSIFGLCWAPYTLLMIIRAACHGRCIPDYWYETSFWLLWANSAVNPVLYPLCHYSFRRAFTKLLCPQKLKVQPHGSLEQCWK", "assay": "(3H)-N-α-methylhistamine binding to rat cortical membranes (histamine-3 receptor ligands)", "conditions": "male Sprague-Dawley rat brain cortical membranes; (3H)-N-α-methylhistamine ~0.6 nM; 30 minutes at 25° C.; Cheng-Prusoff", "method": "Briefly, male Sprague-Dawley rat brain cortices were homogenized (1 g tissue/10 mL buffer) in 50 mM Tris-HCl/5 mM EDTA containing protease inhibitor cocktail (Calbiochem) using a polytron set at 20,500 rpm. Homogenates were centrifuged for 20 minutes at 40,000×g. The supernatant was decanted, and pellets were weighed. The pellet was resuspended by polytron homogenization in 40 mL 50 mM Tris-HCl/5 mM EDTA with protease inhibitors and centrifuged for 20 minutes at 40,000×g. […] Rat cortical membranes (12 mg wet weight/tube) were incubated with (^3H)-N-α-methylhistamine (˜0.6 nM) with or without H3 receptor antagonists in a total incubation volume of 0.5 mL of 50 mM Tris-HCl/5 mM EDTA (pH 7.7). Test compounds were dissolved in DSMO to provide a 20 mM solution, serially diluted and then added to the incubation mixture prior to initiating the incubation assay by addition of the membranes. Thioperamide (3 μM) was used to determine nonspecific binding. Binding incubations were conducted for 30 minutes at 25° C. and terminated by addition of 2 mL of ice cold 50 mM Tris-HCl (pH 7.7) and filtration through 0.3% polyethylenimine-soaked Unifilter plates (Packard). These filters were washed 4 additional times with 2 mL of ice-cold 50 mM Tris-HCl and dried for 1 hour. Radioactivity was determined using liquid scintillation counting techniques. Results were analyzed by Hill transformation and Ki values were determined using the Cheng-Prusoff equation.", "units": {"Ki": "µM"}, "values": [
      {"smiles": "C[C@@H]1CCCN1CCc1cc2cc(-c3ccccc3Cl)ccc2o1", "note": "[Example 123, (2R)-1-{2-[5-(2-chlorophenyl)-1-benzofuran-2-yl]ethyl}-2-methylpyrrolidine]", "Ki": 0.016},
      {"smiles": "C[C@@H]1CCCN1CCc1cc2cc(-c3cccc(Cl)c3)ccc2o1", "note": "[Example 124, (2R)-1-{2-[5-(3-chlorophenyl)-1-benzofuran-2-yl]ethyl}-2-methylpyrrolidine]", "Ki": 0.034},
      {"smiles": "CC1CCCN1CCc1cc2cc(-c3ccc(Cl)cc3)ccc2o1", "note": "(centres unmarked) [Example 125, 1-{2-[5-(4-chlorophenyl)-benzofuran-2-yl]-ethyl}-2-methylpyrrolidine]", "Ki": 0.063},
      {"smiles": "C[C@@H]1CCCN1CCc1cc2cc(-c3cccc(C(F)(F)F)c3)ccc2o1", "note": "[Example 126, (2R)-2-methyl-1-(2-{5-[3-(trifluoromethyl)phenyl]-1-benzofuran-2-yl}ethyl)pyrrolidine]", "Ki": 0.081},
      {"smiles": "C[C@@H]1CCCN1CCc1cc2cc(-c3ccc(C(F)(F)F)cc3)ccc2o1", "note": "[Example 127, (2R)-2-methyl-1-(2-{5-[4-(trifluoromethyl)phenyl]-1-benzofuran-2-yl}ethyl)pyrrolidine]", "Ki": 0.12},
      {"smiles": "C[C@@H]1CCCN1CCc1cc2cc(-c3cccc(OC(F)(F)F)c3)ccc2o1", "note": "[Example 128, (2R)-2-methyl-1-(2-{5-[3-(trifluoromethoxy)phenyl]-1-benzofuran-2-yl}ethyl)pyrrolidine]", "Ki": 0.11},
      {"smiles": "C[C@@H]1CCCN1CCc1cc2cc(-c3ccc(OC(F)(F)F)cc3)ccc2o1", "note": "[Example 129, (2R)-2-methyl-1-(2-{5-[4-(trifluoromethoxy)phenyl]-1-benzofuran-2-yl}ethyl)pyrrolidine]", "Ki": 0.15},
      {"smiles": "Cc1ccc(-c2ccc3oc(CCN4CCC[C@H]4C)cc3c2)cc1C", "note": "[Example 130, (2R)-1-{2-[5-(3,4-dimethylphenyl)-1-benzofuran-2-yl]ethyl}-2-methylpyrrolidine]", "Ki": 0.06},
      {"smiles": "C[C@@H]1CCCN1CCc1cc2cc(-c3cc(Cl)cc(Cl)c3)ccc2o1", "note": "[Example 131, (2R)-1-{2-[5-(3,5-dichlorophenyl)-1-benzofuran-2-yl]ethyl}-2-methylpyrrolidine]", "Ki": 0.022},
      {"smiles": "Cc1cc(C)cc(-c2ccc3oc(CCN4CCC[C@H]4C)cc3c2)c1", "note": "[Example 132, (2R)-1-{2-[5-(3,5-dimethylphenyl)-1-benzofuran-2-yl]ethyl}-2-methylpyrrolidine]", "Ki": 0.019},
      {"smiles": "C[C@@H]1CCCN1CCc1cc2cc(-c3ccc(CO)cc3)ccc2o1", "note": "[Example 133, [4-(2-{2-[(2R)-2-methyl-1-pyrrolidinyl]ethyl}-1-benzofuran-5-yl)phenyl]methanol]", "Ki": 0.0064},
      {"smiles": "C[C@@H]1CCCN1CCc1cc2cc(-c3cccnc3)ccc2o1", "note": "[Example 134, 3-(2-{2-[(2R)-2-methyl-1-pyrrolidinyl]ethyl}-1-benzofuran-5-yl)pyridine]", "Ki": 0.0032},
      {"smiles": "C[C@@H]1CCCN1CCc1cc2cc(C=Cc3ccc(F)cc3)ccc2o1", "note": "[Example 135, (2R)-1-(2-{5-[2-(4-fluorophenyl)vinyl]-1-benzofuran-2-yl}ethyl)-2-methylpyrrolidine]", "Ki": 0.031},
      {"smiles": "CC(=O)c1cccc(-c2ccc3oc(CCN4CCC[C@H]4C)cc3c2)c1", "note": "[Example 136, 1-[3-(2-{2-[(2R)-2-methyl-1-pyrrolidinyl]ethyl}-1-benzofuran-5-yl)phenyl]ethanone]", "Ki": 0.0004},
      {"smiles": "CC(O)c1cccc(-c2ccc3oc(CCN4CCC[C@H]4C)cc3c2)c1", "note": "(stereo partly drawn) [Example 137, 1-[3-(2-{2-[(2R)-2-methyl-1-pyrrolidinyl]ethyl}-1-benzofuran-5-yl)phenyl]ethanol]", "Ki": 0.0028},
      {"smiles": "C[C@@H]1CCCN1CCc1cc2cc(-c3cccc(C(C)(C)O)c3)ccc2o1", "note": "[Example 138, 2-[3-(2-{2-[(2R)-2-methyl-1-pyrrolidinyl]ethyl}-1-benzofuran-5-yl)phenyl]-2-propanol]", "Ki": 0.0012},
      {"smiles": "CC(=NO)c1cccc(-c2ccc3oc(CCN4CCC[C@H]4C)cc3c2)c1", "note": "[Example 139, 1-[3-(2-{2-[(2R)-2-methyl-1-pyrrolidinyl]ethyl}-1-benzofuran-5-yl)phenyl]ethanone oxime]", "Ki": 0.0031},
      {"smiles": "CON=C(C)c1cccc(-c2ccc3oc(CCN4CCC[C@H]4C)cc3c2)c1", "note": "[Example 140, 1-[3-(2-{2-[(2R)-2-methyl-1-pyrrolidinyl]ethyl}-1-benzofuran-5-yl)phenyl]ethanone O-methyloxime]", "Ki": 0.021},
      {"smiles": "CCON=C(C)c1cccc(-c2ccc3oc(CCN4CCC[C@H]4C)cc3c2)c1", "note": "[Example 141, 1-[3-(2-{2-[(2R)-2-methyl-1-pyrrolidinyl]ethyl}-1-benzofuran-5-yl)phenyl]ethanone O-ethyloxime]", "Ki": 0.044},
      {"smiles": "CC(=NOC(C)(C)C)c1cccc(-c2ccc3oc(CCN4CCC[C@H]4C)cc3c2)c1", "note": "[Example 142, 1-[3-(2-{2-[(2R)-2-methyl-1-pyrrolidinyl]ethyl}-1-benzofuran-5-yl)phenyl]ethanone O-(tert-butyl)oxime]", "Ki": 0.029},
      {"smiles": "CC(C)CC(=O)c1cccc(-c2ccc3oc(CCN4CCC[C@H]4C)cc3c2)c1", "note": "[Example 148, 3-methyl-1-[3-(2-{2-[(2R)-2-methyl-1-pyrrolidinyl]ethyl}-1-benzofuran-5-yl)phenyl]-1-butanone]", "Ki": 0.019},
      {"smiles": "C[C@@H]1CCCN1CCc1cc2cc(-c3cccc(C=O)c3)ccc2o1", "note": "[Example 149, 3-(2-{2-[(2R)-2-methyl-1-pyrrolidinyl]ethyl}-1-benzofuran-5-yl)benzaldehyde]", "Ki": 0.0033},
      {"smiles": "C[C@@H]1CCCN1CCc1cc2cc(-c3cccc(C(=O)c4cccs4)c3)ccc2o1", "note": "[Example 150, [3-(2-{2-[(2R)-2-methyl-1-pyrrolidinyl]ethyl}-1-benzofuran-5-yl)phenyl](2-thienyl)methanone]", "Ki": 0.0036},
      {"smiles": "C[C@@H]1CCCN1CCc1cc2cc(-c3cccc(C(=O)c4cccc(F)c4)c3)ccc2o1", "note": "[Example 151, (3-fluorophenyl)[3-(2-{2-[(2R)-2-methyl-1-pyrrolidinyl]ethyl}-1-benzofuran-5-yl)phenyl]methanone]", "Ki": 0.053},
      {"smiles": "C[C@@H]1CCCN1CCc1cc2cc(-c3cccc(CO)c3)ccc2o1", "note": "[Example 152, [3-(2-{2-[(2R)-2-methyl-1-pyrrolidinyl]ethyl}-1-benzofuran-5-yl)phenyl]methanol]", "Ki": 0.0026},
      {"smiles": "C[C@@H]1CCCN1CCc1cc2cc(Cc3ccccc3)ccc2o1", "note": "[Example 153, (2R)-1-[2-(5-benzyl-1-benzofuran-2-yl)ethyl]-2-methylpyrrolidine]", "Ki": 0.032},
      {"smiles": "C[C@@H]1CCCN1CCc1cc2cc(-n3ccnc3)ccc2o1", "note": "[Example 154, 1-(2-{2-[(2R)-2-methyl-1-pyrrolidinyl]ethyl}-1-benzofuran-5-yl)-1H-imidazole]", "Ki": 0.002},
      {"smiles": "Cc1cc(-c2ccc3oc(CCN4CCC[C@H]4C)c(Br)c3c2)ccc1C#N", "note": "[Example 155, 4-(3-bromo-2-{2-[(2R)-2-methyl-1-pyrrolidinyl]ethyl}-1-benzofuran-5-yl)-2-methylbenzonitrile]", "Ki": 0.016},
      {"smiles": "C[C@@H]1CCCN1CCc1oc2ccc(-c3ccc(C#N)cc3)cc2c1Cl", "note": "[Example 156A, 4-(3-chloro-2-{2-[(2R)-2-methyl-1-pyrrolidinyl]ethyl}-1-benzofuran-5-yl)benzonitrile]", "Ki": 0.0037},
      {"smiles": "C[C@@H]1CCCN1CCc1oc2cc(Cl)c(-c3ccc(C#N)cc3)cc2c1Cl", "note": "[Example 156B, 4-(3,6-dichloro-2-{2-[(2R)-2-methyl-1-pyrrolidinyl]ethyl}-1-benzofuran-5-yl)benzonitrile]", "Ki": 0.0097},
      {"smiles": "C[C@@H]1CCCN1CCc1oc2ccc(-c3ccc(C#N)cc3)cc2c1I", "note": "[Example 157, 4-(3-iodo-2-{2-[(2R)-2-methyl-1-pyrrolidinyl]ethyl}-1-benzofuran-5-yl)benzonitrile]", "Ki": 0.0084},
      {"smiles": "C[C@@H]1CCC(=O)N1CCc1cc2cc(-c3ccc(C#N)cc3)ccc2o1", "note": "[Example 158, 4-(2-{2-[(2R)-2-methyl-5-oxo-1-pyrrolidinyl]ethyl}-1-benzofuran-5-yl)benzonitrile]", "Ki": "> 1"},
      {"smiles": "CC(=O)c1c(CCN2CCC[C@H]2C)oc2ccc(-c3ccc(C#N)cc3)cc12", "note": "[Example 159, 4-(3-acetyl-2-{2-[(2R)-2-methyl-1-pyrrolidinyl]ethyl}-1-benzofuran-5-yl)benzonitrile]", "Ki": 0.014},
      {"smiles": "C[C@@H]1CCCN1CCc1cc2cc(-c3ccc(C(=O)C4CC4)cc3)ccc2o1", "note": "[Example 160, cyclopropyl[4-(2-{2-[(2R)-2-methyl-1-pyrrolidinyl]ethyl}-1-benzofuran-5-yl)phenyl]methanone]", "Ki": 0.0076},
      {"smiles": "Cc1noc(C)c1-c1ccc2oc(CCN3CCC[C@H]3C)cc2c1", "note": "[Example 161, 3,5-dimethyl-4-(2-{2-[(2R)-2-methyl-1-pyrrolidinyl]ethyl}-1-benzofuran-5-yl)isoxazole]", "Ki": 0.0016},
      {"smiles": "CC[C@@H]1CCCN1CCc1cc2cc(-c3ccc(C#N)cc3)ccc2o1", "note": "[Example 163, 4-(2-{2-[(2R)-2-ethyl-1-pyrrolidinyl]ethyl}-1-benzofuran-5-yl)benzonitrile]", "Ki": 0.0037},
      {"smiles": "N#Cc1ccc(-c2ccc3oc(CCN4CCC[C@H]4CF)cc3c2)cc1", "note": "[Example 164, 4-(2-{2-[(2S)-2-(fluoromethyl)-1-pyrrolidinyl]ethyl}-1-benzofuran-5-yl)benzonitrile]", "Ki": 0.024},
      {"smiles": "C[C@@H]1CCCN1CCc1cc2cc(-c3ccc(C#N)cc3)ccc2s1", "note": "[Example 165, 4-(2-{2-[(2R)-2-methyl-1-pyrrolidinyl]ethyl}-1-benzothien-5-yl)benzonitrile]", "Ki": 0.0168}
    ]}
  ]
}
